From patent publication US10898469B2, “Imidazolylamide derivative” (Sumitomo Dainippon Pharma Co., Ltd., priority 2016, dated 2021)
Where two headings read alike, the source gives them in different places. One block for each compound: values may come before it.

Experiments:
[1] = Pharmacokinetic assay in tumor-bearing mice where HCT-116 cells were transplanted (Test Example 3); format: in vivo; conditions: female, BALB/cAnNCrlj-nu/nu, plasma, tumor-bearing nude mouse; for concentration at 1 h: read-out: Plasma concentrations after oral administration, 1 hour; for concentration at 2 h: read-out: Plasma concentrations after oral administration, 2 hours; for concentration at 6 h: read-out: Plasma concentrations after oral administration, 6 hours; for concentration at 24 h: read-out: Plasma concentrations after oral administration, 24 hours
Method: A 7- to 12-week-old nude mouse (BALB/cAnNCrlj-nu/nu, female, CHARLES RIVER LABORATORIES JAPAN, INC.) received intradermal transplantation of human colorectal cancer-derived HCT-116 cells (ATCC) in an amount of 3×10^6 cells/mouse around the ventral part. […] Blood was collected 1, 2, 6, and 24 hours after administration, and centrifuged to afford plasma samples. Methanol was added to the plasma samples so as to be adjusted to 80% of the final concentration. The samples were centrifuged and filtered to be deproteinized. Then, the test compound was detected and quantitated with LC-MS/MS (API4000, AB SCIEX). In quantitation, a calibration curve was prepared with mouse plasma comprising a known amount of the compound and Bezafibrate was used for the internal standard.
The test in Test Example 3 was performed for the compounds of Examples.
The following table and FIGS. 1 to 5 show temporal changes of the plasma concentrations of compounds after oral administration.

[2] = Solid state thermal stability; format: physicochemical; conditions: 70° C., vessel left open; for solid state thermal stability (change of form): stored for 12 weeks
Method: The solid state thermal stability was measured for the compounds of Examples 237 and 238 according to the following method. The compounds of Examples 237 and 238 were put into an isothermal vessel set at 70° C., and the samples were stored for 12 weeks under the condition that the vessel was left open. Each elemental analysis result for each compound after 12 weeks is shown as follows.

HCT-116 cells = assay: Drug efficacy assay in tumor-bearing mice where HCT-116 cells were transplanted (Test Example 4); format: in vivo; conditions: HCT-116 tumor-bearing nude mouse, oral, dosage 200 mg/kg, administration period 15 days
From the text: The present compound can be used to evaluate the anti-tumor effect thereof according to the following assay. A 4- to 7-week-old nude mouse (BALB/cAnNCrj-nu/nu, female, CHARLES RIVER LABORATORIES JAPAN, INC.) received intradermal transplantation of human colorectal cancer-derived HCT-116 cells (ATCC) in an amount of 3×10^6 cells/mouse around the ventral portion. The engraftment of HCT-116 cells was observed 5 to 14 days after the transplantation, and then each compound suspended in a solvent such as 0.5% methylcellulose solution was orally administrated to the mouse in a dose of 1 to 200 mg/kg one to twice daily. The tumor volume was measured over time after the administration to evaluate the effect for reducing the tumor volume by the administration of each compound. The tumor volume can be calculated from the minor axis and major axis of the tumor measured with a digital caliper (Mitutoyo) according to the following equation: Tumor volume [mm^3]=[…] The tumor volume in the present-compound-administration group was compared with that of the control administration group treated with only a solvent such as 0.5% methylcellulose solution, and T/C value was calculated according the following equation to evaluate the anti-tumor effect of the present compound. […]

[3] = oral single dose 100 mg/kg, 20% Labrasol
[4] = oral single dose 60 mg/kg, 0.5% methylcellulose
[5] = oral single dose 150 mg/kg, 0.5% methylcellulose

concentration at 1 h [1, 3]: 465 ng/mL
concentration at 2 h [1, 3]: 309 ng/mL
concentration at 6 h [1, 3]: 271 ng/mL
SMILES: N#Cc1ccc(/C=C/C(=O)Nc2cn(Cc3cccc(Cl)c3)cn2)cc1OCCO [Example 129]

Elemental analysis C (%) measured value after 12 weeks ([2]; 12 weeks): 54.71%
Elemental analysis Cl (%) measured value after 12 weeks ([2]; 12 weeks): 4.00%
Elemental analysis F (%) measured value after 12 weeks ([2]; 12 weeks): 13.74%
Elemental analysis H (%) measured value after 12 weeks ([2]; 12 weeks): 4.31%
Elemental analysis N (%) measured value after 12 weeks ([2]; 12 weeks): 10.28%
solid state thermal stability (change of form) [2]: changed to 0.5 hydrochloride 0.5 hydrate
concentration at 1 h [1, 4]: 13200 ng/mL
concentration at 2 h [1, 4]: 9760 ng/mL
concentration at 6 h [1, 4]: 3390 ng/mL
concentration at 24 h [1, 4]: 4 ng/mL
SMILES: COc1ccc(C(=O)Nc2cn(Cc3cc(F)c(F)c(F)c3)cn2)cc1OC.Cl [Example 237, 3,4-dimethoxy-N-[1-(3,4,5-trifluorobenzyl)-1H-imidazol-4-yl]benzamide]

concentration at 1 h [1, 3]: 287 ng/mL
concentration at 2 h [1, 3]: 837 ng/mL
concentration at 6 h [1, 3]: 79 ng/mL
concentration at 24 h [1, 3]: 62 ng/mL
SMILES: CC(=O)Nc1ccc(/C=C/C(=O)Nc2cn(Cc3cccc(OC(F)(F)F)c3)cn2)cc1 [Example 123]

concentration at 1 h [1, 5]: 9220 ng/mL
concentration at 2 h [1, 5]: 7040 ng/mL
concentration at 6 h [1, 5]: 1200 ng/mL
concentration at 24 h [1, 5]: 142 ng/mL
SMILES: O=C(/C=C/c1cccnc1)Nc1cn(Cc2cccc(Cl)c2)cn1 [Example 120, (E)-N-(1-(3-chlorobenzyl)-1H-imidazol-4-yl)-3-(pyridin-3-yl)acrylamide]

concentration at 1 h [1, 3]: 4700 ng/mL
concentration at 2 h [1, 3]: 610 ng/mL
concentration at 6 h [1, 3]: 644 ng/mL
concentration at 24 h [1, 3]: 13 ng/mL
SMILES: COc1ccc(/C=C/C(=O)Nc2cn(Cc3cccc(C(F)(F)F)c3)cn2)cc1OCCO [Example 128]

concentration at 1 h [1, 3]: 160 ng/mL
concentration at 2 h [1, 3]: 642 ng/mL
concentration at 6 h [1, 3]: 467 ng/mL
concentration at 24 h [1, 3]: 221 ng/mL
SMILES: CC(=O)Nc1ccc(/C=C/C(=O)Nc2cn(Cc3cccc(C(F)(F)F)c3)cn2)cc1.Cl [Example 122, (E)-N-(1-(3-trifluoromethyl-benzyl)-1H-imidazol-4-yl)-3-(4-(acetylamino)phenyl)acrylamide]
T/C (HCT-116 cells): 51%

Elemental analysis C (%) measured value after 12 weeks ([2]; 12 weeks): 55.51%
Elemental analysis F (%) measured value after 12 weeks ([2]; 12 weeks): 10.15%
Elemental analysis H (%) measured value after 12 weeks ([2]; 12 weeks): 4.33%
Elemental analysis N (%) measured value after 12 weeks ([2]; 12 weeks): 7.48%
Elemental analysis S (%) measured value after 12 weeks ([2]; 12 weeks): 5.62%
solid state thermal stability (change of form) [2]: not changed
SMILES: COc1ccc(C(=O)Nc2cn(Cc3cc(F)c(F)c(F)c3)cn2)cc1OC [Example 238, 3,4-Dimethoxy-N-[1-(3,4,5-trifluorobenzyl)-1H-imidazol-4-yl]benzamide tosilate]
